From patent US10842785B2, “PIM kinase inhibitors in combination with RNA splicing modulators/inhibitors for treatment of cancers” (UNIVERSITY OF MARYLAND, BALTIMORE COUNTY, priority 2016, dated 2020)

Assays:
Format in all cases: cell-based
CHAC1, NFYA and Cog5 = experiment: RT-PCR for splice variants of CHAC1, NFYA and Cog5 in MOLM16 cells; settings: MOLM16, 1 μM, 6 hrs
Excerpt: (§1) Control=DMSO treated. […] Arrow indicate bands that change after AZD1208 treatment.
(§2) A few targets from the microarray data were chosen, that being, ones that were affected by PIM kinase inhibition. The procedure was manual curation of data, followed by reference seq analysis of splice variants to determine avalibilty of sequence information. Initially, changes in splice variants of a known apoptotic regulator, MCL1 were validated. The smaller isoform of MCL1 is pro-apototic, while the longer isoform has anti-apototic functions.

EOL1 cells [1] = experiment: MTT assay (number of live cells), EOL1 cells, single inhibitors and combination, Compusyn CI; settings: 48 hours
Protocol: (§3) General experimental procedure: 10,000 (MOLM16) or 20,000 (EOL1) cells were seeded per well in 96-well plates. After culturing overnight, AZD1208 and/or Pladienolide B/SRPIN340 were added to wells in quadruplicates at 5 different concentrations. Different ratios between AZD1208 and Pladienolide B were tried in MOLM16 and EOL1 cells. At 48 hours the MTT metabolism indicative of number of live cells was measured by MTT assay (Promega, Cat: G4000). The resulting values were used to evaluate the Fa (fraction affected) values, which were plugged into the Compusyn software to calculate the combination indices (CI values) at ED50, ED75, ED90 and ED95 (ED—Effective dose of combination).
To further confirm the finding in MOLM16 cells, it was tested whether the combination of AZD1208 and Pladienolide B is synergistic in another AML cell line—EOL1. Different ratios between AZD1208 and Pladienolide B were tested to identify the ideal ratio that provides maximum synergy.

MOLM16 cells [2] = experiment: Microarray (Affymetrix HTA 2.0) profiling of alternative splicing changes in MOLM16 cells; settings: MOLM16, 1 μM, 6 hours
Protocol: Due to the large number of splicing factors as PIM substrates, a more globally spread regulation of splicing by PIM kinases was envisioned. As such, a microarray approach was chosen to profile the entire transcriptome for changes in alternative splicing, due to inhibition of PIM kinase activity. MOLM16 cells were treated with DMSO/AZD1208 (1 μM) (pan-PIM inhibitor) for 6 hours. This experiment was performed in triplicates and RNA was run on a bioanalyzer to confirm sample intergrity, as outline in FIG. 3. A similar procedure was used for analysis of both MOLM16 and EOL1 cells. After 1 μM AZD1208 treatment for 6 hours, cells were harvested, and total RNA was isolated. The RNA quality was confirmed using a bio-analyzer. High quality RNA samples were further processed and hybridized to Affymetrix HTA 2.0 microarrays. The results obtained were processed using Affymetrix expression console and transcriptome analysis console (TAC) software. […] Similar experiment was also performed for EOL1 cells. […] Each point represents a unique probe selection region and the splicing index values for MOLM16 (X axis) and EOL1 cells (Y axis) are shown. All the points in +X+Y and −X−Y quadrants are splicing changes consistent with directionality of the change. […] Microsoft Excel functions were used to identify the overlap between these lists of splicing changes. […]

MOLM16 cells [3] = experiment: MTT assay (number of live cells), MOLM16 cells, single inhibitors and combination, Compusyn CI; settings: 48 hours
Protocol: as §3
These values of drug dose and effect (fraction of cells affected by the treatment—FA values) were input into the Compusyn software to estimate the interaction between the two drugs.

MCL1 splice variants [4] = experiment: Taqman qRT-PCR for MCL1 splice variants in MOLM16 cells; settings: MOLM16, 1 μM, 6 hrs
Excerpt: as §1, §2

EOL1 cells [5] = experiment: Microarray (Affymetrix HTA 2.0) profiling of alternative splicing changes in EOL1 cells
Protocol: Due to the large number of splicing factors as PIM substrates, a more globally spread regulation of splicing by PIM kinases was envisioned. As such, a microarray approach was chosen to profile the entire transcriptome for changes in alternative splicing, due to inhibition of PIM kinase activity. MOLM16 cells were treated with DMSO/AZD1208 (1 μM) (pan-PIM inhibitor) for 6 hours. This experiment was performed in triplicates and RNA was run on a bioanalyzer to confirm sample intergrity, as outline in FIG. 3. A similar procedure was used for analysis of both MOLM16 and EOL1 cells. After 1 μM AZD1208 treatment for 6 hours, cells were harvested, and total RNA was isolated. The RNA quality was confirmed using a bio-analyzer. High quality RNA samples were further processed and hybridized to Affymetrix HTA 2.0 microarrays. The results obtained were processed using Affymetrix expression console and transcriptome analysis console (TAC) software. […] Similar experiment was also performed for EOL1 cells. […] Each point represents a unique probe selection region and the splicing index values for MOLM16 (X axis) and EOL1 cells (Y axis) are shown. All the points in +X+Y and −X−Y quadrants are splicing changes consistent with directionality of the change. […] Microsoft Excel functions were used to identify the overlap between these lists of splicing changes. […] When the directionality of these changes was considered, it was noted that most of these changes were also consistantly in the same direction (all but 39 out of 2599).

[6] = system: SR protein phosphorylation; experiment: Western blot using phospho-SR protein antibody; settings: MOLM16 and EOL1 cells, versus DMSO treated controls
Protocol: MOLM16 and EOL1 cells were treated with AZD1208 or SRPIN340 for indicated concentration and time. Cells lysates from treated cells were used for western blot analysis.
Phosphorylation of splicing factors is known to play a role in regulation of splicing. Phosphorylation of splicing factors called serine arginine rich proteins (SR proteins) is known to regulate their function and localization. Serine arginine rich protein kinases (SRPK1 and SRPK2) phosphorylate these proteins and inhibition of SRPK activity using the small molecule modulator SRPIN340 leads to reduction in phosphorylation. The level of SR protein phosphorylation can be visualized using phospho-SR protein antibody. It was investigated to determine if PIM kinases regulate SRPK activity to indirectly lead to changes in splicing. […] Thus, it was concluded that the SRPK activity was not affected by PIM kinase inhibition.

MCL1 splice variants [7] = experiment: Taqman qRT-PCR for MCL1 splice variants in OCI-M1 cells; settings: 1 μM, 6 hrs
Excerpt: as §1, §2

SMILES: N[C@@H]1CCCN(c2c(/C=C3/SC(=O)NC3=O)cccc2-c2ccccc2)C1 [AZD1208, (5E)-5-[[2-[(3R)-3-aminopiperidin-1-yl]-3-phenylphenyl]methylidene]-1,3-thiazolidine-2,4-dione]
- changes in splice variants of CHAC1, NFYA and Cog5 (CHAC1, NFYA and Cog5): in agreement with the microarray data
- Effect (fraction of cells affected, FA) (EOL1 cells [1]; EOL1, Trial 1, 0.024 μM): 0.395
- Effect (fraction of cells affected, FA) (EOL1 cells [1]; EOL1, Trial 1, 0.048 μM): 0.529
- Effect (fraction of cells affected, FA) (EOL1 cells [1]; EOL1, Trial 1, 0.072 μM): 0.675
- Effect (fraction of cells affected, FA) (EOL1 cells [1]; EOL1, Trial 1, 0.096 μM): 0.684
- Effect (fraction of cells affected, FA) (EOL1 cells [1]; EOL1, Trial 1, 0.12 μM): 0.680
- Effect (fraction of cells affected, FA) (EOL1 cells [1]; EOL1, Trial 2, 0.024 μM): 0.432
- Effect (fraction of cells affected, FA) (EOL1 cells [1]; EOL1, Trial 2, 0.048 μM): 0.587
- Effect (fraction of cells affected, FA) (EOL1 cells [1]; EOL1, Trial 2, 0.072 μM): 0.650
- Effect (fraction of cells affected, FA) (EOL1 cells [1]; EOL1, Trial 2, 0.096 μM): 0.683
- Effect (fraction of cells affected, FA) (EOL1 cells [1]; EOL1, Trial 2, 0.12 μM): 0.698
- Effect (fraction of cells affected, FA) (EOL1 cells [1]; EOL1, Trial 3, 0.024 μM): 0.373
- Effect (fraction of cells affected, FA) (EOL1 cells [1]; EOL1, Trial 3, 0.048 μM): 0.523
- Effect (fraction of cells affected, FA) (EOL1 cells [1]; EOL1, Trial 3, 0.072 μM): 0.600
- Effect (fraction of cells affected, FA) (EOL1 cells [1]; EOL1, Trial 3, 0.096 μM): 0.633
- Effect (fraction of cells affected, FA) (EOL1 cells [1]; EOL1, Trial 3, 0.12 μM): 0.642
- gene products with changes in splicing indices (MOLM16 cells [2]): > 5000
- splicing events with changes in splicing indices (MOLM16 cells [2]): > 10,000
- Effect (fraction of cells affected, FA) (MOLM16 cells [3]; MOLM16, SRPIN340 testing Trial 1, 0.03 μM): 0.396
- Effect (fraction of cells affected, FA) (MOLM16 cells [3]; MOLM16, SRPIN340 testing Trial 1, 0.06 μM): 0.521
- Effect (fraction of cells affected, FA) (MOLM16 cells [3]; MOLM16, SRPIN340 testing Trial 1, 0.12 μM): 0.628
- Effect (fraction of cells affected, FA) (MOLM16 cells [3]; MOLM16, Trial 1, 0.024 μM): 0.415
- Effect (fraction of cells affected, FA) (MOLM16 cells [3]; MOLM16, Trial 1, 0.048 μM): 0.471
- Effect (fraction of cells affected, FA) (MOLM16 cells [3]; MOLM16, Trial 1, 0.072 μM): 0.564
- Effect (fraction of cells affected, FA) (MOLM16 cells [3]; MOLM16, Trial 1, 0.096 μM): 0.594
- Effect (fraction of cells affected, FA) (MOLM16 cells [3]; MOLM16, Trial 1, 0.12 μM): 0.614
- Effect (fraction of cells affected, FA) (MOLM16 cells [3]; MOLM16, Trial 2, 0.024 μM): 0.337
- Effect (fraction of cells affected, FA) (MOLM16 cells [3]; MOLM16, Trial 2, 0.048 μM): 0.478
- Effect (fraction of cells affected, FA) (MOLM16 cells [3]; MOLM16, Trial 2, 0.072 μM): 0.534
- Effect (fraction of cells affected, FA) (MOLM16 cells [3]; MOLM16, Trial 2, 0.096 μM): 0.566
- Effect (fraction of cells affected, FA) (MOLM16 cells [3]; MOLM16, Trial 2, 0.12 μM): 0.622
- Effect (fraction of cells affected, FA) (MOLM16 cells [3]; MOLM16, Trial 3, 0.024 μM): 0.344
- Effect (fraction of cells affected, FA) (MOLM16 cells [3]; MOLM16, Trial 3, 0.048 μM): 0.455
- Effect (fraction of cells affected, FA) (MOLM16 cells [3]; MOLM16, Trial 3, 0.072 μM): 0.524
- Effect (fraction of cells affected, FA) (MOLM16 cells [3]; MOLM16, Trial 3, 0.096 μM): 0.554
- Effect (fraction of cells affected, FA) (MOLM16 cells [3]; MOLM16, Trial 3, 0.12 μM): 0.606
- level of shorter isoform of MCL1 (MCL1 splice variants [4]): specifically and significantly reduces
- changes in splicing after PIM kinase inhibition (EOL1 cells [5]; EOL1, 1 μM, 6 hrs.): widespread changes were observed in splicing
- overlapping splicing changes not in the same direction (EOL1 cells [5]; out of 2599 changes shared by MOLM16 and EOL1, 1 μM, 6 hours): 39
- splicing changes observed in similar probe selection regions (EOL1 cells [5]; overlap between MOLM16 and EOL1 lists, 1 μM, 6 hours): 2599
- SR protein phosphorylation [6]: does not change SR protein phosphorylation
- level of both MCL1 splice variants (MCL1 splice variants [7]): did not show any change
